Experimental data as given in article PMC7614683, “A small molecule PI3Kα activator for cardioprotection and neuroregeneration” (Nature, 2023).
Where two headings read alike, the source gives them in different places.

Experiments:
Assay in all cases: SelectScreen Z-LYTE kinase activity assay (SI Table 6)
Type in all cases: biochemical
[1] = target: T1, protein kinases of the Z-LYTE panel (Homo sapiens, UniProt O14920)
T1 sequence (O14920 1-756): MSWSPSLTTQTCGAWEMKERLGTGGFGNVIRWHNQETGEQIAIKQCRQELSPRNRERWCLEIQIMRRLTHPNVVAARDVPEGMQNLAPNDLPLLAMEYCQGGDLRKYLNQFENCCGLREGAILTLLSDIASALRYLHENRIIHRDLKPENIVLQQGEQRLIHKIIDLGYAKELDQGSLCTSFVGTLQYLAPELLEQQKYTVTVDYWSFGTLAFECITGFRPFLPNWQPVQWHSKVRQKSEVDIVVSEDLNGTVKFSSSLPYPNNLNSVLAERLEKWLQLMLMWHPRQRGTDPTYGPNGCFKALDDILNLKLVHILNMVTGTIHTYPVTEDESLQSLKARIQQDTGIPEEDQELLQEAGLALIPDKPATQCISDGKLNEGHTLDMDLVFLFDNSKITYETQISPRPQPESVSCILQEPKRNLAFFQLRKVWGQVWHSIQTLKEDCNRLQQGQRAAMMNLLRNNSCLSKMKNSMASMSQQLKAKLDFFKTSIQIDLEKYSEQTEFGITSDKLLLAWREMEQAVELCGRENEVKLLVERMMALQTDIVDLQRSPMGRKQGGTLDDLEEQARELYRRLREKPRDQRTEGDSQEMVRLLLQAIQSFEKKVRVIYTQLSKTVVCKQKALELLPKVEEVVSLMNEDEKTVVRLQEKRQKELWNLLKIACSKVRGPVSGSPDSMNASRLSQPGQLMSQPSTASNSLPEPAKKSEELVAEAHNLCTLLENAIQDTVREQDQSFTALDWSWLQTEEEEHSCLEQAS
In short: (§1)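 A counterscreen of 133 protein and 7 lipid kinases was run with one compound concentration, 1 μM 1938, in SelectScreen Adapta, Lantha or Z-LYTE assays.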

[2] = target: protein kinases of the Z-LYTE panel (Homo sapiens, UniProt O60674)
In short: as §1

[3] = target: T2, protein kinases of the Z-LYTE panel (Homo sapiens, UniProt P54762)
T2 sequence (P54762 18-984): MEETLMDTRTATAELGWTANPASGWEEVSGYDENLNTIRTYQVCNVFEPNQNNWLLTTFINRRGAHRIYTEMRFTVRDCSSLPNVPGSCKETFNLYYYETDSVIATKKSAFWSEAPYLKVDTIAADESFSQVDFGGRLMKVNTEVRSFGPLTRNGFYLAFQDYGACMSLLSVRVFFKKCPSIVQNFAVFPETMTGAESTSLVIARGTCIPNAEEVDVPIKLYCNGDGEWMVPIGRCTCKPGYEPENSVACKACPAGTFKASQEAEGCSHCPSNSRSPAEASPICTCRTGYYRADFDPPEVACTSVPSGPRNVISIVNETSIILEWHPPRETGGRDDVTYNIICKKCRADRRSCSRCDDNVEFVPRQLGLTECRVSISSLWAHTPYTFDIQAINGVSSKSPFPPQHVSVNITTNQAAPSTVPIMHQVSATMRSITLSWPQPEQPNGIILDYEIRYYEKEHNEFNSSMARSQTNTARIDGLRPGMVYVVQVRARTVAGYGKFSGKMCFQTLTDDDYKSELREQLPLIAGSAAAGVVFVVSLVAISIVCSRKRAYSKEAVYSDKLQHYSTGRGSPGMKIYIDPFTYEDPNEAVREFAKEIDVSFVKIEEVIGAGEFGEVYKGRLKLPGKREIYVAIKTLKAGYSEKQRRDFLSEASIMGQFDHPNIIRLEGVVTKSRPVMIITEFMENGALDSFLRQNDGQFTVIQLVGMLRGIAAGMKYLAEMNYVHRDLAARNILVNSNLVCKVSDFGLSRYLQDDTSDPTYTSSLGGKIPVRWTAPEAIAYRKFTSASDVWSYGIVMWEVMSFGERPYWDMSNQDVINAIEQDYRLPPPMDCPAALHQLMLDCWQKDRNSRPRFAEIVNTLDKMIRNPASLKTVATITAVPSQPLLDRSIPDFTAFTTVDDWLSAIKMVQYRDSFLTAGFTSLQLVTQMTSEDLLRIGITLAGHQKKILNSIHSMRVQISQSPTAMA
In short: as §1

Sequence of protein kinases of the Z-LYTE panel (Homo sapiens, UniProt O60674) (O60674 whole entry): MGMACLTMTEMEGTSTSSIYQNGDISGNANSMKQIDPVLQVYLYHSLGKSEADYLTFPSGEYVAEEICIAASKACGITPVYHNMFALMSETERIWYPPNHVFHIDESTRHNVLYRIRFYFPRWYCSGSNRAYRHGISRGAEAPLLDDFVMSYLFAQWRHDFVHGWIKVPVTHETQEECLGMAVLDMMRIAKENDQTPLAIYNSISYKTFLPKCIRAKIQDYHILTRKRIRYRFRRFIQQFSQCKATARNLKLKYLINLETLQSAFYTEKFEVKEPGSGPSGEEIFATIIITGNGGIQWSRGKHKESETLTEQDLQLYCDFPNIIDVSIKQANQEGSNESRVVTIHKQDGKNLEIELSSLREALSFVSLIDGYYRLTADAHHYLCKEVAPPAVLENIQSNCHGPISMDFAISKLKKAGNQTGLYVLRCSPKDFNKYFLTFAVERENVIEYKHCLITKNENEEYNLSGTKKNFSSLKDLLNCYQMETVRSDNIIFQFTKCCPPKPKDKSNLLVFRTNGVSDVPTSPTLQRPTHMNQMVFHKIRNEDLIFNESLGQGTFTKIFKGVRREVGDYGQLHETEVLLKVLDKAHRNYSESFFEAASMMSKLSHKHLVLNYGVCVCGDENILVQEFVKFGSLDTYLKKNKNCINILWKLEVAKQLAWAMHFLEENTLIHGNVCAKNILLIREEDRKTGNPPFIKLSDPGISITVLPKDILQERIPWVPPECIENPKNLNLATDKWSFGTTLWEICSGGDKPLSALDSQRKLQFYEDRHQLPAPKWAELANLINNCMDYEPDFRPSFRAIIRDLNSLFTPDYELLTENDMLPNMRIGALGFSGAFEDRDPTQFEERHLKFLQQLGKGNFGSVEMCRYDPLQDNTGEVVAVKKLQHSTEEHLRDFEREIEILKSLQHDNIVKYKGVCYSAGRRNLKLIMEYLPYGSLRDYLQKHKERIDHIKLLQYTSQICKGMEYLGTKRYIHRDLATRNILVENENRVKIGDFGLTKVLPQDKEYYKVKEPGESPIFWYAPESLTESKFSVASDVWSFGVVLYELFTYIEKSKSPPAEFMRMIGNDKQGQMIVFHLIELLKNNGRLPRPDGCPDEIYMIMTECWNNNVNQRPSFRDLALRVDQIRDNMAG

## CCN1CCN(c2ccc(Nc3cc(Nc4cccc5c4N(C(C)=O)CC5)ccn3)cc2)CC1 [Compound 1938]
[1]; read-out: % Inhibition Point 1
  inhibition at 1 µM: 8.52%
[1]; read-out: % Inhibition Point 2
  inhibition at 1 µM: 7%
[1]; read-out: % Inhibition mean
  inhibition at 1 µM: 7.61%
[2]; read-out: % Inhibition Point 1
  inhibition at 1 µM: 6.6%
[2]; read-out: % Inhibition Point 2
  inhibition at 1 µM: 9%
[2]; read-out: % Inhibition mean
  inhibition at 1 µM: 8%
[3]; read-out: % Inhibition Point 1
  inhibition at 1 µM: 11%
[3]; read-out: % Inhibition Point 2
  inhibition at 1 µM: 11%
[3]; read-out: % Inhibition mean
  inhibition at 1 µM: 11%
